In the test the test system is Hedgehog signalling pathway. Description: Gli-reporter NIH3T3 luciferase assay (Hedgehog pathway inhibition). It is filed as cell-based. The conditions noted are these: NIH3T3, Gli-reporter NIH-3T3 cells, recombinant mouse sonic hedgehog, 24 hours, luminescence. In a few lines:
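Mouse NIH3T3 cells with Gli-responsive luciferase reporter, pre-treated 1 h with compound (top final concentration 1 μM, 0.1% DMSO) in 0.5% calf serum medium. Then stimulated with recombinant mouse sonic hedgehog for 24 h at 37° C. Luminescence read-out (OneGLO), triplicates; IC50 reported.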

Setting [1] is: read-out: Category (Hedgehog pathway inhibition activity, IC50).

Where two headings read alike, the source gives them in different places.

In general, IC50 refers to the concentration needed to halve the response being measured. As to `Cn1nccc1-c1nnc(N2CCC(NCc3ccc(F)cc3)CC2)c2ccccc12` [Example 75, N-[(4-fluorophenyl)methyl]-1-[4-(2-methylpyrazol-3-yl)phthalazin-1-yl]piperidin-4-amine], the IC50 under setting [1] lay within 200 to 2000 nM.

Regarding `Cc1c(-c2ccnn2C)nnc(N2CCC(N(C)Cc3ccccc3C(C)C)CC2)c1C` [Example 82, 1-[4,5-dimethyl-6-(2-methylpyrazol-3-yl)pyridazin-3-yl]-N-[(2-isopropylphenyl)methyl]-N-methyl-piperidin-4-amine], the IC50 (read-out: Gli luc IC50) fell in the range of 10 to 200 nM.

With `Cn1nccc1-c1nnc(N2CCC(NCc3ccc(F)cc3C(F)(F)F)CC2)c2ncccc12` [Example 146, N-[[4-fluoro-2-(trifluoromethyl)phenyl]methyl]-1-[5-(2-methylpyrazol-3-yl)pyrido[2,3-d]pyridazin-8-yl]piperidin-4-amine], the IC50 (read-out: Gli luc IC50) was greater than 200 nM.

As for `CN(Cc1ccc(F)cc1C(F)(F)F)C1CCN(c2nnc(-c3ccnn3C)c3ccncc23)CC1` [Example 47, N-[[4-fluoro-2-(trifluoromethyl)phenyl]methyl]-N-methyl-1-[1-(2-methylpyrazol-3-yl)pyrido[3,4-d]pyridazin-4-yl]piperidin-4-amine], under setting [1], the IC50 was less than 10 nM.

Turning to `Cc1c(-c2ccnn2C)nnc(N2CCC(N(C)C(=O)Nc3ccc(F)cc3C(F)(F)F)CC2)c1C` [Example 151, 1-[1-[4,5-dimethyl-6-(2-methylpyrazol-3-yl)pyridazin-3-yl]-4-piperidyl]-3-[4-fluoro-2-(trifluoromethyl)phenyl]-1-methyl-urea], the IC50 (read-out: Gli Luc nM (IC50)) worked out at 5.12 nM and the IC50 (read-out: Gli luc IC50) is less than 10 nM.

As to `Cn1nccc1-c1nnc(N2CCC(NCc3ccc(F)cc3C(F)(F)F)CC2)c2ccccc12` [Example 79, N-[[4-fluoro-2-(trifluoromethyl)phenyl]methyl]-1-[4-(2-methylpyrazol-3-yl)phthalazin-1-yl]piperidin-4-amine], the IC50 under setting [1] was less than 10 nM and the IC50 (read-out: Gli Luc nM (IC50)) amounted to 7.85 nM.

In the case of `CN(Cc1ccc(F)cc1C(F)(F)F)C1CCN(c2nnc(-c3ccnn3C)c3c2CCC3)CC1` [Example 132, N-[[4-fluoro-2-(trifluoromethyl)phenyl]methyl]-N-methyl-1-[1-(2-methylpyrazol-3-yl)-6,7-dihydro-5H-cyclopenta[d]pyridazin-4-yl]piperidin-4-amine], the IC50 (read-out: Gli luc IC50) lay within 10 to 200 nM.

Take `CN(Cc1ccc(F)nc1C(F)(F)F)C1CCN(c2nnc(-c3ccnn3C)c3ccccc23)CC1` [Example 160, N-[[6-fluoro-2-(trifluoromethyl)-3-pyridyl]methyl]-N-methyl-1-[4-(2-methylpyrazol-3-yl)phthalazin-1-yl]piperidin-4-amine]: under “read-out: Gli luc IC50”, the IC50 is less than 10 nM.

In the case of `Cn1nccc1-c1nnc(N2CCC(NC(=O)Nc3cccc(C(F)(F)F)c3)CC2)c2ccccc12` [Example 13, 1-[1-[4-(2-methylpyrazol-3-yl)phthalazin-1-yl]-4-piperidyl]-3-[3-(trifluoromethyl)phenyl]urea], under setting [1], the IC50 was less than 10 nM.

With `CC(C)c1ccccc1CN(C)C1CCN(c2nnc(-c3ccnn3C)c3ccccc23)CC1` [Example 29, N-[(2-isopropylphenyl)methyl]-N-methyl-1-[4-(2-methylpyrazol-3-yl)phthalazin-1-yl]piperidin-4-amine], the IC50 under setting [1] fell in the range of 10 to 200 nM.

On to `CN(Cc1ccc(C#N)cc1)C1CCN(c2nnc(-c3ccnn3C)c3ccccc23)CC1` [Example 60, 4-[[methyl-[1-[4-(2-methylpyrazol-3-yl)phthalazin-1-yl]-4-piperidyl]amino]methyl]benzonitrile], for which the IC50 under setting [1] fell in the range of 10 to 200 nM.

`Cn1nccc1-c1nnc(N2CCC(NC(=O)Nc3ccccc3F)CC2)c2ccccc12` [Example 46, 1-(2-fluorophenyl)-3-[1-[4-(2-methylpyrazol-3-yl)phthalazin-1-yl]-4-piperidyl]urea]: under setting [1], the IC50 was less than 10 nM.

On to `CN(C1CCN(c2nnc(-c3ccnn3C)c3ccncc23)CC1)S(=O)(=O)c1ccc(F)cc1F` [Example 102, 2,4-difluoro-N-methyl-N-[1-[1-(2-methylpyrazol-3-yl)pyrido[3,4-d]pyridazin-4-yl]-4-piperidyl]benzenesulfonamide], for which the IC50 (read-out: Gli luc IC50) lay in the range of 10 to 200 nM.

On to `Cn1nccc1-c1nnc(N2CCC(NCc3ccc(F)nc3C(F)(F)F)CC2)c2ccccc12` [Example 18, N-[[6-fluoro-2-(trifluoromethyl)-3-pyridyl]methyl]-1-[4-(2-methylpyrazol-3-yl)phthalazin-1-yl]piperidin-4-amine], for which the IC50 under setting [1] is 10 to 200 nM.

Regarding `Cn1nccc1-c1nnc(N2CCC(NCc3ncccc3C(F)(F)F)CC2)c2ccccc12` [Example 150, 1-[4-(2-methylpyrazol-3-yl)phthalazin-1-yl]-N-[[3-(trifluoromethyl)-2-pyridyl]methyl]piperidin-4-amine], the IC50 (read-out: Gli luc IC50) lay in the range of 10 to 200 nM.

Take `Cc1c(-c2ccnn2C)nnc(N2CCC(N(C)Cc3ccccc3C#N)CC2)c1C` [Example 87, 2-[[[1-[4,5-dimethyl-6-(2-methylpyrazol-3-yl)pyridazin-3-yl]-4-piperidyl]-methyl-amino]methyl]benzonitrile]: where the note is “read-out: Gli luc IC50”, the IC50 was 10 to 200 nM.

In the case of `Cn1nccc1-c1nnc(N2CCC(NCc3ccc(F)nc3C(F)(F)F)CC2)c2ccccc12` [Example 165, N-[[6-fluoro-2-(trifluoromethyl)-3-pyridyl]methyl]-1-[4-(2-methylpyrazol-3-yl)phthalazin-1-yl]piperidin-4-amine], for the setting “read-out: Gli luc IC50”, the IC50 was 10 to 200 nM.

`Cn1nccc1-c1nnc(N2CCC(NCc3ccccc3F)CC2)c2ccccc12` [Example 72, N-[(2-fluorophenyl)methyl]-1-[4-(2-methylpyrazol-3-yl)phthalazin-1-yl]piperidin-4-amine]: the half-maximal inhibitory concentration (IC50) under setting [1] was in the range of 10 to 200 nM.

For the compound `CN(C(=O)Nc1ccc(F)cc1C(F)(F)F)C1CCN(c2nnc(-c3ccnn3C)c3ncccc23)CC1` [Example 80, 3-[4-fluoro-2-(trifluoromethyl)phenyl]-1-methyl-1-[1-[8-(2-methylpyrazol-3-yl)pyrido[2,3-d]pyridazin-5-yl]-4-piperidyl]urea], the IC50 (read-out: Gli luc IC50) is less than 10 nM.

In the case of `Cc1c(-c2ccnn2C)nnc(N2CCC(N(C)Cc3ccccc3[N+](=O)[O-])CC2)c1C` [Example 81, 1-[4,5-dimethyl-6-(2-methylpyrazol-3-yl)pyridazin-3-yl]-N-methyl-N-[(2-nitrophenyl)methyl]piperidin-4-amine], the IC50 (read-out: Gli luc IC50) was less than 10 nM.

On to `CN(C1CCN(c2nnc(-c3ccnn3C)c3c2CCC3)CC1)S(=O)(=O)c1ccc(F)cc1C(F)(F)F` [Example 124, 4-fluoro-N-methyl-N-[1-[1-(2-methylpyrazol-3-yl)-6,7-dihydro-5H-cyclopenta[d]pyridazin-4-yl]-4-piperidyl]-2-(trifluoromethyl)benzenesulfonamide], for which the IC50 (read-out: Gli luc IC50) was 10 to 200 nM.

Consider `CN(Cc1cccc(C#N)c1)C1CCN(c2nnc(-c3ccnn3C)c3ccccc23)CC1` [Example 168, 3-[[methyl-[1-[4-(2-methylpyrazol-3-yl)phthalazin-1-yl]-4-piperidyl]amino]methyl]benzonitrile], for which the IC50 (read-out: Gli luc IC50) is 10 to 200 nM.

For the compound `CN(Cc1ccccc1C#N)C1CCN(c2nnc(-c3ccnn3C)c3ccccc23)CC1` [Example 33, 2-[[methyl-[1-[4-(2-methylpyrazol-3-yl)phthalazin-1-yl]-4-piperidyl]amino]methyl]benzonitrile], the IC50 under setting [1] was 10 to 200 nM.

(Values after patent US9579319B2 (Redx Pharma PLC, priority 2013, dated 2017).)
